The results in this text go back to patent US20180185510A1, “ANTIBODY DRUG CONJUGATES OF KINESIN SPINDEL PROTEIN (KSP) INHIBITORS WITH ANTI-B7H3-ANTIBODIES” (BAYER PHARMA AKTIENGESELLSCHAFT, priority 2015, published 2018).

The subject of data set [1] is NCI-H292: human mucoepidermoid lung carcinoma cells. Kind of data set: MTT assay, cytotoxicity of metabolites, NCI-H292. Conditions: NCI-H292, 96 h, 96 h incubation. It is filed as cell-based. As to the method:
NCI-H292: human mucoepidermoid lung carcinoma cells, ATCC-CRL-1848, standard medium: RPMI 1640 (Biochrom; #FG1215, stab. glutamine)+10% FCS (Biochrom; #S0415).
(§1) The cells were cultivated according to the standard method using the growth media listed under C-1. The test is carried out by detaching the cells with a solution of Accutase in PBS (Biochrom AG #L2143), pelleting, resuspending in culture medium, counting and sowing into a 96-well culture plate with white bottom (Costar #3610) (NCI H292: 2500 cells/well in a total volume of 100 μl). The cells were then incubated in an incubator at 37° C. and 5% carbon dioxide. After 48 h, the medium was replaced. The metabolites in 10 μl of culture medium in concentrations from 10^−5M to 10^−13M were then pipetted to the cells (in triplicate), and the assay was then incubated in an incubator at 37° C. and 5% carbon dioxide. […] To this end, the MTT reagent was incubated with the cells for 4 h, followed by lysis of the cells overnight by addition of the detergent. The dye formed was detected at 570 nm (Infinite M1000 pro, Tecan). The measured data were used to calculate the IC50 of the growth inhibition using the DRC (dose response curve). The proliferation of cells which were not treated with test substance but were otherwise identically treated was defined as the 100% figure.
(In general: Formazan colour is commonly taken as a measure of viable cells.)

Data set [2] can be described thus: Flux assay for cell permeability using Caco-2 cells. Conditions: human, Caco-2.
The test system of the next data set is KPL4. Put plainly: MTT assay, cytotoxicity of metabolites, KPL4. It is filed as cell-based. Particulars: KPL4, 96 h, 96 h incubation. On the procedure: as §1
In data set [3] the target is T1, motor domain of the human kinesin spindle protein KSP/Eg5 (Homo sapiens, UniProt P52732).
T1 construct: The motor domain of the human kinesin spindle protein KSP/Eg5; purchased tebu-bio/Cytoskeleton Inc 027EG01-XL
T1 sequence (P52732 18-359 limits assumed): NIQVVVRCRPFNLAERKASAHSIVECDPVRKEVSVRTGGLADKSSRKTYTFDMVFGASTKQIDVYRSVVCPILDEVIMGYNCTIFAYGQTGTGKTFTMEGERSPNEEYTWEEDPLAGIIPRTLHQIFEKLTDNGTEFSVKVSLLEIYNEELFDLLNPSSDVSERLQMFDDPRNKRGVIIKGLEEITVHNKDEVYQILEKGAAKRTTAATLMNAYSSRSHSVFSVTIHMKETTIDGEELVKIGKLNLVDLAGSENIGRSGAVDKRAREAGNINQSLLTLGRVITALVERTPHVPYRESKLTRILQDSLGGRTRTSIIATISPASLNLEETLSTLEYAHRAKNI
Kind of data set: Inhibition of the kinesin spindle protein, ATPase activity (malachite green). It is filed as biochemical. Conditions: 10 nM KSP/Eg5 motor domain, microtubuli, ATP 500 μM, 2 h RT. On the procedure: The motor domain of the human kinesin spindle protein KSP/Eg5 (tebu-bio/Cytoskeleton Inc, No. 027EG01-XL) was incubated in a concentration of 10 nM with microtubuli (bovine or porcine, tebu-bio/Cytoskeleton Inc) stabilized with 50 μg/ml taxol (Sigma No. T7191-5MG) for 5 min at RT in 15 mM PIPES, pH 6.8 (5 mM MgCl2 and 10 mM DTT, Sigma). […] Incubation was at RT for 2 h. ATPase activity was detected by detecting the inorganic phosphate formed using malachite green (Biomol). […] The positive controls used were monastrol (Sigma, M8515-1 mg) and ispinesib (AdooQ Bioscience A10486). The individual data of the dose-activity curve are eight-fold determinations. The IC50 values are means of two independent experiments.

Data set [4] deals with T2, human B7H3 (RnDSystems, 2318-B3-050/CF) (human, UniProt Q5ZPR3 29-461).
T2 construct: Bought antigen, detected with an anti-His HRP antibody, so a His tag is implied
T2 sequence (looked up): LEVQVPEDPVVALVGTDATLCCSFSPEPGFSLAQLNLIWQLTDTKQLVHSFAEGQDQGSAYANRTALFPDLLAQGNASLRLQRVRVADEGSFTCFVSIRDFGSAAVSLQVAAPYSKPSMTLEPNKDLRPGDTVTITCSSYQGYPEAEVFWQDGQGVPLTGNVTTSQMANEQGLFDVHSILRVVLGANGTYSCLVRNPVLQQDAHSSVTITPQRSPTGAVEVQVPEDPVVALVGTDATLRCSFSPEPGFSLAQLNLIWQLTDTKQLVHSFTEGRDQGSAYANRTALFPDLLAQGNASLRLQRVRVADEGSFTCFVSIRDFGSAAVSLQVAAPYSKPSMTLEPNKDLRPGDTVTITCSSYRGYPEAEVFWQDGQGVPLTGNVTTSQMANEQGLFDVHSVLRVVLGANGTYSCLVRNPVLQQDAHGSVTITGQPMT
Kind of data set: ELISA; antibody captured on anti-human IgG Fc, antigen 37 ng/ml, anti-His HRP / Amplex Red. As to the method: (§2) TPP5706 was synthesized as described above. Binding of TPP5706 to human B7H3 and to human B7H2 and B7H4 was characterized using ELISAs. […] After washing once with PBS, 0.05% Tween, the plate was blocked with 100% Smart Block (Candor) for one hour at 37° C. The antibody to be tested (e.g. TPP5706 or one of its derivatives) was then attached to the plate (2 μg/ml IgG in PBS, 0.05% Tween, 10% Smart Block; 1 hour, room temperature). […] After washing three times, the plate was incubated with Amplex Red for 30 minutes and then read.
(In general: In an ELISA, binding on a coated surface is turned into a signal by an enzyme label.)

Data set [5] addresses T3, human B7H2 (RnDSystems, 8206-B7) (human, UniProt O75144 19-258, limits assumed).
T3 construct: Bought antigen, detected with an anti-His HRP antibody
T3 sequence (looked up): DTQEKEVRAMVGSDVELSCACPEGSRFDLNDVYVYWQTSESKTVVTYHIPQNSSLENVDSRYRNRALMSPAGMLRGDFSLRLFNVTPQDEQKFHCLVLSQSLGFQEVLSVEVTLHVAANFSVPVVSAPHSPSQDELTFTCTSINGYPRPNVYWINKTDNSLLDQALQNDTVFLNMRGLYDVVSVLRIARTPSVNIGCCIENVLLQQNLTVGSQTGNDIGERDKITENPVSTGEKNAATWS
The description is as above. On the procedure:
as §2

In data set [6] the target is T4, human B7H4 (RnDSystems, 6576-B7) (human, UniProt Q7Z7D3 29-258, limits assumed).
T4 construct: Bought antigen, detected with an anti-His HRP antibody
T4 sequence (looked up): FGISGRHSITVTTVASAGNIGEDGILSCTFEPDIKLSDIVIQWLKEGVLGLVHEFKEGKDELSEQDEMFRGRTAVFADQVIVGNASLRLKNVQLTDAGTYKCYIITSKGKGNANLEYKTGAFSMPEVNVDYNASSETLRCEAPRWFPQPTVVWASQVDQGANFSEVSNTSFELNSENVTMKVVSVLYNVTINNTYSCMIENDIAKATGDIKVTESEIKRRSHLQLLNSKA
The data set is described as above. On the procedure:
as §2

Bounds are passed on as bounds.

The IC50 is the concentration that gives 50% inhibition. A word on the Papp B→A: it is how fast a substance crosses the layer from the basolateral side. Turning to `CC(C)(C)[C@H](c1cc(-c2cc(F)ccc2F)cn1Cc1ccccc1)N(CC[C@H](N)C(=O)NCCNC(=O)CNC(=O)CC(SC[C@H](N)C(=O)O)C(=O)O)C(=O)CO` (mixture of isomers) [Example M26, 4-[(2-{[2-({(2S)-2-Amino-4-[{(1R)-1-[1-benzyl-4-(2,5-difluorophenyl)-1H-pyrrol-2-yl]-2,2-dimethylpropyl}(glycoloyl)amino]butanoyl}amino)ethyl]amino}-2-oxoethyl)amino]-2-{[(2R)-2-amino-2-carboxyethyl]sulphanyl}-4-oxobutanoic acid-trifluoroacetic acid (1:1)], the IC50 in data set [1] was determined as 63.8 nM. This molecule gave a Papp B→A at 2 h in data set [2] of 1.3 ×10⁻⁶ cm/s.

For `CC(C)(C)[C@H](c1cc(-c2cc(F)ccc2F)cn1Cc1ccccc1)N(CC[C@H](N)C(=O)NCCNC(=O)CNC(=O)C(CC(=O)O)SC[C@H](N)C(=O)O)C(=O)CO` (single isomer, unassigned) [Example M15], the IC50 in data set [1] is 133 nM; in the data set on KPL4, 169 nM.

`CC(C)(C)C(c1cc(-c2cc(F)ccc2F)cn1Cc1ccccc1)N(CC[C@H](N)C(=O)NCCNC(=O)CN1C(=O)CC(SC[C@H](N)C(=O)O)C1=O)C(=O)CO.O=C(O)C(F)(F)F` (stereo partly drawn) [Example M1, S-[1-(2-{[2-({(2S)-2-Amino-4-[{(1R)-1-[1-benzyl-4-(2,5-difluorophenyl)-1H-pyrrol-2-yl]-2,2-dimethylpropyl}(glycoloyl)amino]butanoyl}amino)ethyl]amino}-2-oxoethyl)-2,5-dioxopyrrolidin-3-yl]-L-cysteine/trifluoroacetic acid (1:1)]: the IC50 (in data set [1]; in the data set on KPL4) was 500 nM throughout. In addition, in data set [2], the Papp B→A at 2 h was 0.78 ×10⁻⁶ cm/s.

In the case of `CC(C)(C)[C@H](c1cc(-c2cc(F)ccc2F)cn1Cc1ccccc1)N(CCCN)C(=O)CO` [Example M9, N-(3-Aminopropyl)-N-{(1R)-1-[1-benzyl-4-(2,5-difluorophenyl)-1H-pyrrol-2-yl]-2,2-dimethylpropyl}-2-hydroxyacetamide], the IC50 in data set [3] worked out at 1.07 nM.

In the case of `CC(C)(C)[C@H](c1cc(-c2cc(F)ccc2F)cn1Cc1ccccc1)N(CCCN)C(=O)CSC[C@H](NC(=O)CCOCCOCCOCCOCCNC(=O)CNC(=O)C(CC(=O)O)SC[C@H](N)C(=O)O)C(=O)O` (stereo partly drawn) [Example M21, (2R,24S,27R)-27-Amino-2-[({2-[(3-aminopropyl) {(1R)-1-[1-benzyl-4-(2,5-difluorophenyl)-1H-pyrrol-2-yl]-2,2-dimethylpropyl}amino]-2-oxoethyl}sulphanyl)methyl]-24-(carboxymethyl)-4,20,23-trioxo-7,10,13,16-tetraoxa-25-thia-3,19,22-triazaoctacosane-1,28-dioic acid/trifluoroacetic acid (1:2)], the IC50 in data set [3] is 2.31 nM.

With `CC(C)(C)[C@H](c1cc(-c2cc(F)ccc2F)cn1Cc1ccccc1)N(CC[C@H](N)C(=O)NCCC(=O)N[C@@H](CCC(=O)O)C(=O)O)C(=O)CO` [Example M23, N-{(2S)-2-Amino-4-[{(1R)-1-[1-benzyl-4-(2,5-difluorophenyl)-1H-pyrrol-2-yl]-2,2-dimethylpropyl}(glycoloyl)amino]butanoyl}-beta-alanyl-L-glutamic acid-trifluoroacetic acid (1:1)], the IC50 (in data set [1]; with KPL4) was 500 nM in each case.

For the molecule `CC(C)(C)[C@H](c1cc(-c2cc(F)ccc2F)cn1Cc1ccccc1)N(CC[C@H](N)C(=O)NCCC(=O)N[C@H](CCC(=O)O)C(=O)O)C(=O)CO` [Example M24, N-{(2S)-2-Amino-4-[{(1R)-1-[1-benzyl-4-(2,5-difluorophenyl)-1H-pyrrol-2-yl]-2,2-dimethylpropyl}(glycoloyl)amino]butanoyl}-beta-alanyl-D-glutamic acid-trifluoroacetic acid (1:1)], the IC50 in data set [1] came to 167 nM; in the data set on KPL4 it was 500 nM.

With `CC(C)(C)[C@H](c1cc(-c2cc(F)ccc2F)cn1Cc1ccccc1)N(CC[C@H](N)C(=O)NCCNC(=O)CNC(=O)C(CC(=O)O)SC[C@H](N)C(=O)O)C(=O)CO` (stereo partly drawn) [Example M27, 4-[(2-{[2-({(2S)-2-Amino-4-[{(1R)-1-[1-benzyl-4-(2,5-difluorophenyl)-1H-pyrrol-2-yl]-2,2-dimethylpropyl}(glycoloyl)amino]butanoyl}amino)ethyl]amino}-2-oxoethyl)amino]-3-{[(2R)-2-amino-2-carboxyethyl]sulphanyl}-4-oxobutanoic acid-trifluoroacetic acid (1:1)], the IC50 in data set [1] stood at 276 nM.

B1: TPP-3803 (antibody, human IgG1, kappa, V domains shown)
VH: QVKLQQSGAELVKPGASVKLSCKASGYTFTNYDINWVRQRPEQGLEWIGWIFPGDGSTQYNEKFKGKATLTTDTSSSTAYMQLSRLTSEDSAVYFCARQTTATWFAYWGQGTTVTVSS
VL: DIELTQSPTTLSVTPGDRVSLSCRASQSISDYLHWYQQKSHESPRLLIKYASQSISGIPSRFSGSGSGSDFTLSINSVEPEDVGVYYCQNGHSFPLTFGAGTKLELKR
notes: also called anti-B7H3 AK1A
Turning to B1, the “Quotient signal (B7)/signal (buffer)” value in data set [4] is 51.

B2: TPP-5706 (antibody, human IgG1, kappa, V domains shown)
VH: QVQLQQPGAELVKPGASVKMSCKASGYTFTIYNVHWIKQTPGQGLEWMGTIFPGNGDTSYNQKFKDKATLTTDKSSKTAYMQLNSLTSEDSAVYYCARWDDGNVGFAHWGQGTLVTVSA
VL: DIQMTQSPASLSASVGETVTITCRASENINNYLTWFQQKQGKSPQLLVYHAKTLAEGVPSRFSGSGSGTQFSLKINSLQPEDFGSYYCQHHYGTPPTFGGGTKLEIKR
notes: Chimera of the murine Fv of the antibody from hybridoma PTA-4058 with the Ch1-Ch3 regions of a human IgG1; expressed as complete IgG; also called anti-B7H3 AK1B
Turning to B2, the “Quotient signal (B7)/signal (buffer)” value in data set [4] is 294; in data set [5] it was below 1.5; in data set [6], below 1.5.
